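Compound exposure: 48 hours, 5 concentrations, 96-well plates. TGI marks complete inhibition of growth.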
Legend:
Test in all cases: inhibition of tumour cell growth, NCI panel, 48 h
A549 NSCLC = tested on: A549 NSCLC
ACHN renal = tested on: ACHN renal
CCRF-CEM leukemia = tested on: CCRF-CEM leukemia
COLO 205 colon = tested on: COLO 205 colon
DMS 114 small cell lung = tested on: DMS 114 small cell lung
DMS 273 small cell lung = tested on: DMS 273 small cell lung
EKVX NSCLC = tested on: EKVX NSCLC
HCC-2998 colon = tested on: HCC-2998 colon
HCT-116 colon = tested on: HCT-116 colon
HCT-15 colon = tested on: HCT-15 colon
HL-60(TB) leukemia = tested on: HL-60(TB) leukemia
HOP-18 NSCLC = tested on: HOP-18 NSCLC
HOP-62 NSCLC = tested on: HOP-62 NSCLC
HOP-92 NSCLC = tested on: HOP-92 NSCLC
HT29 colon = tested on: HT29 colon
IGROV1 ovarian = tested on: IGROV1 ovarian
K-562 leukemia = tested on: K-562 leukemia
KM12 colon = tested on: KM12 colon
KM20L2 colon = tested on: KM20L2 colon
LOX IMVI melanoma = tested on: LOX IMVI melanoma
LXFL 529 NSCLC = tested on: LXFL 529 NSCLC
M14 melanoma = tested on: M14 melanoma
M19-MEL melanoma = tested on: M19-MEL melanoma
MOLT-4 leukemia = tested on: MOLT-4 leukemia
NCI-H23 lung = tested on: NCI-H23 lung
NCI-H460 lung = tested on: NCI-H460 lung
OVCAR-3 ovarian = tested on: OVCAR-3 ovarian
OVCAR-4 ovarian = tested on: OVCAR-4 ovarian
OVCAR-5 ovarian = tested on: OVCAR-5 ovarian
OVCAR-8 ovarian = tested on: OVCAR-8 ovarian
RPMI-8226 leukemia = tested on: RPMI-8226 leukemia
RXF 393 renal = tested on: RXF 393 renal
SF-268 CNS = tested on: SF-268 CNS
SF-539 CNS = tested on: SF-539 CNS
SK-MEL-2 melanoma = tested on: SK-MEL-2 melanoma
SK-MEL-28 melanoma = tested on: SK-MEL-28 melanoma
SK-MEL-5 melanoma = tested on: SK-MEL-5 melanoma
SN12C renal = tested on: SN12C renal
SNB-19 CNS = tested on: SNB-19 CNS
SNB-75 CNS = tested on: SNB-75 CNS
SNB-78 CNS = tested on: SNB-78 CNS
SR leukemia = tested on: SR leukemia
SW-620 colon = tested on: SW-620 colon
TK-10 renal = tested on: TK-10 renal
U251 CNS = tested on: U251 CNS
UACC-257 melanoma = tested on: UACC-257 melanoma
UACC-62 melanoma = tested on: UACC-62 melanoma
UO-31 renal = tested on: UO-31 renal
786-0 renal = tested on: 786-0 renal
CAKI-1 renal = tested on: CAKI-1 renal
DLD-1 colon = tested on: DLD-1 colon
MALME-3M melanoma = tested on: MALME-3M melanoma
NCI-H226 lung = tested on: NCI-H226 lung
NCI-H522 lung = tested on: NCI-H522 lung
RXF-631 renal = tested on: RXF-631 renal
SF-295 CNS = tested on: SF-295 CNS
SK-OV-3 ovarian = tested on: SK-OV-3 ovarian
XF 498 CNS = tested on: XF 498 CNS

O=C(O)CC/C(=N\Nc1nsc2ccccc12)c1ccccc1
TGI (A549 NSCLC): > 100 µM
TGI (ACHN renal): > 100 µM
TGI (CCRF-CEM leukemia): 96.7 µM
TGI (COLO 205 colon): > 100 µM
TGI (DMS 114 small cell lung): 82 µM
TGI (DMS 273 small cell lung): 67.3 µM
TGI (EKVX NSCLC): > 100 µM
TGI (HCC-2998 colon): 90.8 µM
TGI (HCT-116 colon): > 100 µM
TGI (HCT-15 colon): > 100 µM
TGI (HL-60(TB) leukemia): 71.9 µM
TGI (HOP-18 NSCLC): > 100 µM
TGI (HOP-62 NSCLC): > 100 µM
TGI (HOP-92 NSCLC): > 100 µM
TGI (HT29 colon): > 100 µM
TGI (IGROV1 ovarian): > 100 µM
TGI (K-562 leukemia): > 100 µM
TGI (KM12 colon): > 100 µM
TGI (KM20L2 colon): > 100 µM
TGI (LOX IMVI melanoma): > 100 µM
TGI (LXFL 529 NSCLC): > 100 µM
TGI (M14 melanoma): > 100 µM
TGI (M19-MEL melanoma): > 100 µM
TGI (MOLT-4 leukemia): 91.6 µM
TGI (NCI-H23 lung): 95.8 µM
TGI (NCI-H460 lung): > 100 µM
TGI (OVCAR-3 ovarian): 75.3 µM
TGI (OVCAR-4 ovarian): > 100 µM
TGI (OVCAR-5 ovarian): > 100 µM
TGI (OVCAR-8 ovarian): > 100 µM
TGI (RPMI-8226 leukemia): 49.6 µM
TGI (RXF 393 renal): > 100 µM
TGI (SF-268 CNS): > 100 µM
TGI (SF-539 CNS): > 100 µM
TGI (SK-MEL-2 melanoma): > 100 µM
TGI (SK-MEL-28 melanoma): > 100 µM
TGI (SK-MEL-5 melanoma): > 100 µM
TGI (SN12C renal): > 100 µM
TGI (SNB-19 CNS): > 100 µM
TGI (SNB-75 CNS): 61.3 µM
TGI (SNB-78 CNS): > 100 µM
TGI (SR leukemia): 93.3 µM
TGI (SW-620 colon): > 100 µM
TGI (TK-10 renal): > 100 µM
TGI (U251 CNS): > 100 µM
TGI (UACC-257 melanoma): > 100 µM
TGI (UACC-62 melanoma): > 100 µM
TGI (UO-31 renal): > 100 µM

Cc1nc2c(nc1Cl)nc(Oc1ccc(Cl)cc1)c1ccccc12
TGI (786-0 renal): 38.3 µM
TGI (A549 NSCLC): > 100 µM
TGI (ACHN renal): > 100 µM
TGI (CAKI-1 renal): > 100 µM
TGI (CCRF-CEM leukemia): > 100 µM
TGI (COLO 205 colon): > 100 µM
TGI (DLD-1 colon): > 100 µM
TGI (DMS 114 small cell lung): > 100 µM
TGI (DMS 273 small cell lung): > 100 µM
TGI (EKVX NSCLC): > 100 µM
TGI (HCC-2998 colon): > 100 µM
TGI (HCT-116 colon): > 100 µM
TGI (HCT-15 colon): > 100 µM
TGI (HOP-62 NSCLC): 84.1 µM
TGI (HT29 colon): > 100 µM
TGI (IGROV1 ovarian): > 100 µM
TGI (K-562 leukemia): > 100 µM
TGI (KM12 colon): > 100 µM
TGI (KM20L2 colon): > 100 µM
TGI (LOX IMVI melanoma): > 100 µM
TGI (LXFL 529 NSCLC): > 100 µM
TGI (M14 melanoma): > 100 µM
TGI (M19-MEL melanoma): > 100 µM
TGI (MALME-3M melanoma): > 100 µM
TGI (MOLT-4 leukemia): > 100 µM
TGI (NCI-H226 lung): 79.9 µM
TGI (NCI-H23 lung): 85 µM
TGI (NCI-H460 lung): > 100 µM
TGI (NCI-H522 lung): > 100 µM
TGI (OVCAR-3 ovarian): > 100 µM
TGI (OVCAR-4 ovarian): > 100 µM
TGI (OVCAR-5 ovarian): > 100 µM
TGI (OVCAR-8 ovarian): 68.2 µM
TGI (RPMI-8226 leukemia): > 100 µM
TGI (RXF-631 renal): > 100 µM
TGI (SF-268 CNS): > 100 µM
TGI (SF-295 CNS): > 100 µM
TGI (SF-539 CNS): > 100 µM
TGI (SK-MEL-2 melanoma): > 100 µM
TGI (SK-MEL-28 melanoma): > 100 µM
TGI (SK-MEL-5 melanoma): > 100 µM
TGI (SK-OV-3 ovarian): > 100 µM
TGI (SN12C renal): > 100 µM
TGI (SNB-19 CNS): > 100 µM
TGI (SNB-75 CNS): > 100 µM
TGI (SNB-78 CNS): > 100 µM
TGI (SR leukemia): > 100 µM
TGI (SW-620 colon): > 100 µM
TGI (U251 CNS): 40.6 µM
TGI (UACC-257 melanoma): > 100 µM
TGI (UACC-62 melanoma): > 100 µM
TGI (UO-31 renal): 73.7 µM
TGI (XF 498 CNS): > 100 µM

— PubChem BioAssay (NCI)
